Consider 23 compounds from patent US8546377B2 (AbbVie Inc., priority 2009, dated 2013).

Where two headings read alike, the source gives them in different places.

The target of one assay is T1, 5HT2B receptors (Homo sapiens, UniProt P41595).
T1 construct: expressed in transfected cells; host or cells: CHO-K1 cells
Briefly: Human 5-HT2B functional assay in CHO-K1 cells (calcium flux, FLIPR). In kind it is cell-based. On the procedure: (§1) (iii) Human 5-HT2C and 5-HT2B Functional Assay in CHO-K1 Cells
(§2) CHO-K1 cells over-expressing 5HT2C or 5HT2B receptors were grown in 1272 cm^2 flasks to 70-80% confluency in UltraCHO media supplemented with 1% dialyzed fetal bovine serum (FBS), 250 μg/mL zeocin, 100 U/mL penicillin/streptomycin, and 400 μg/mL geneticin. The cells were dissociated from the flasks using 0.05% trypsin, resuspended in freezing media and stored in liquid nitrogen until use. Calcium flux experiments were done using frozen cells. The cells were diluted in media containing 1% dialyzed FBS and 100 U/mL penicillin/streptomycin and plated into 384-well poly-D-Lysine coated plates (15,000 cells/well). Then the plates were incubated overnight in a cell incubator at 37° C., 5% CO2. On the next day, the growth media was replaced with media without FBS and further incubated overnight. On day three, the changes in intracellular Ca^2+ were determined using calcium sensitive fluorescent dye, Ca4 (MDS Analytical Technologies, Sunnyvale, Calif.) by loading 15 μL of diluted dye with 2.5 mM probenecid into the cells containing media and incubated at room temperature for 60 minutes in dark.
(§3) Fluorescence measurements were read at 25° C. at an excitation wavelength of 480 nm and an emission wavelength of 530 nm in FLIPR (MDS). Baseline fluorescence was measured for the first 10 seconds and then 15 μL of 4× concentrations of serotonin/test compounds was added to the cell plate. The fluorescence intensity was captured every second for the first 1 minute followed by every 5 seconds for an additional 2 minutes. The increase in fluorescent response was determined and was normalized to the response of serotonin. The concentration response of compounds was done from a starting concentration of 10 μM, 1:10 dilution across 6 wells with a final dimethyl sulfoxide concentration of 0.2% and was fitted using a 4-parameter logistic equation. The concentration at which a compound exerts half its maximal effect was named as ‘effective concentration 50’ or ‘EC50’.
(§4) Emax is the maximum functional response or efficacy expressed as a percentage relative to the effect of serotonin.
For orientation: A change in cytosolic calcium serves as a functional read-out for many receptors and channels.

The target of the next assay is T2, 5HT2C receptors (Homo sapiens, UniProt P28335).
T2 sequence (P28335 33-458): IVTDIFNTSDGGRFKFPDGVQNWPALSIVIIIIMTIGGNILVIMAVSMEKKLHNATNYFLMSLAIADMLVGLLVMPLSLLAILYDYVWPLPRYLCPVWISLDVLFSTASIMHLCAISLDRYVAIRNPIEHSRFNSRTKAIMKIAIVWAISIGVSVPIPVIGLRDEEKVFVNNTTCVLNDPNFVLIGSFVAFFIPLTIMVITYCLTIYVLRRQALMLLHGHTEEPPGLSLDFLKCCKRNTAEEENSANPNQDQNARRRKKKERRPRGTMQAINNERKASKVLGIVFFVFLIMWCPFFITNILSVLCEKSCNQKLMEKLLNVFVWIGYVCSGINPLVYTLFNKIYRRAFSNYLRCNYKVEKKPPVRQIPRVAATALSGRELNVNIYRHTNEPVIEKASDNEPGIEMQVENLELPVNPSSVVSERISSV
Briefly: Human 5-HT2C functional assay in CHO-K1 cells (calcium flux, FLIPR). The class given is cell-based. Also noted: expressed in transfected cells; host or cells: CHO-K1 cells. To be noted: for Emax: percentage relative to the effect of serotonin. As for the experimental part: as §1, §2, §3, §4

Where [1] appears, read: CHO-K1 cells over-expressing 5HT2B, calcium flux, read-out: EC50 (μM), 5-HT2B Agonist Activity.
[2] abbreviates: CHO-K1 cells over-expressing 5HT2C, calcium flux, read-out: EC50 (μM), 5-HT2c Agonist Activity.
Where [3] appears, read: CHO-K1 cells, read-out: Emax (%), 5-HT2c Agonist Activity.
Where [4] appears, read: CHO-K1, read-out: Emax (%), 5-HT2c Agonist Activity, CHO-K1 cells.
Where [5] appears, read: CHO-K1 cells, percentage relative to the effect of serotonin, read-out: Emax (%), 5-HT2B Agonist Activity.
The mark [6] stands for this setting: CHO-K1, read-out: Emax (%), 5-HT2B Agonist Activity.

T1 sequence (P41595 whole entry): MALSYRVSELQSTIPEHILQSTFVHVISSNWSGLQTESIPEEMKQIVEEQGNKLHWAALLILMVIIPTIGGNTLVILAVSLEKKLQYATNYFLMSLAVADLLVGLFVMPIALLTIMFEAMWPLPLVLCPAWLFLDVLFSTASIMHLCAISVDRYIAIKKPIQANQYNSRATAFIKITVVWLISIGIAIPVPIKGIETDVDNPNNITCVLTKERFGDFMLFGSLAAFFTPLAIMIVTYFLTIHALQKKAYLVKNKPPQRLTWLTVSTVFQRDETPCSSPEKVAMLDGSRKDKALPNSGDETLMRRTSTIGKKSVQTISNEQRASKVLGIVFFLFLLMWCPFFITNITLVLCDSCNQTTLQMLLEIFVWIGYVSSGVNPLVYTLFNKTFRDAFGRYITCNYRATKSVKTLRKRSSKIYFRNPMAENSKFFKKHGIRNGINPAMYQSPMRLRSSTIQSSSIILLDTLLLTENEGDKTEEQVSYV

Turning to `c1cc(-c2ccsc2)c2c(c1)N1CCNC[C@@H]1CCO2` [Example 250, (4aS)-8-(3-thienyl)-2,3,4,4a,5,6-hexahydro-1H-pyrazino[2,1-d][1,5]benzoxazepine], the EC50 (in general, the concentration giving half of the maximal effect) is greater than 10 µM on 5HT2B receptors (setting [1]) and 0.0001 µM on 5HT2C receptors (setting [2]). At 5HT2C receptors (setting [3]), the Emax (as a rule, the maximal effect, on the per cent scale that the assay sets) was found to be 95%.

Take `COc1cccc(-c2ccc3c(c2)N2CCNCC2CC(=O)N3)c1` (stereo not shown) [Example 65, 10-(3-methoxyphenyl)-1,2,3,4,4a,5-hexahydropyrazino[1,2-a][1,5]benzodiazepin-6(7H)-one]: the values for the 50% effective concentration (EC50) on 5HT2B receptors (setting [1]) and at 5HT2C receptors (setting [2]) were greater than 10 µM and 0.05 µM, respectively. In addition, the maximal effect (Emax) on 5HT2C receptors (setting [3]) was greater than 120%.

On to `O=C1NC[C@@H]2CNCC[C@@H]2c2ccccc21` (relative stereo) [Example 180, cis-1,2,3,4,4a,5,6,11b-octahydro-7H-pyrido[3,4-d][2]benzazepin-7-one], for which the 50% effective concentration (EC50) is greater than 10 µM on 5HT2B receptors (setting [1]) and 0.2 µM on 5HT2C receptors (setting [2]). At 5HT2C receptors (setting [4]), the Emax is greater than 120%.

In the case of `CS(=O)(=O)c1ccc(-c2ccc3c(c2)OCC[C@H]2CNCCN32)cc1` [Example 230, (4aS)-9-[4-(methylsulfonyl)phenyl]-2,3,4,4a,5,6-hexahydro-1H-pyrazino[2,1-d][1,5]benzoxazepine], the concentration giving a half-maximal response (EC50) at 5HT2B receptors (setting [1]) is greater than 10 µM; on 5HT2C receptors (setting [2]) it was 0.07 µM. Also, at 5HT2C receptors (setting [3]), the Emax amounted to 90%.

For `CC(C)COc1cccc(-c2ccc3c(c2)N2CCNCC2CC(=O)N3)c1` (stereo not shown) [Example 96, 10-(3-isobutoxyphenyl)-1,2,3,4,4a,5-hexahydropyrazino[1,2-a][1,5]benzodiazepin-6(7H)-one], the EC50 is greater than 10 µM on 5HT2B receptors (setting [1]) and 0.02 µM at 5HT2C receptors (setting [2]). Besides, the Emax at 5HT2C receptors (setting [3]) is greater than 120%.

For `COc1ccccc1-c1ccc2c(c1)N1CCNCC1CC(=O)N2` (stereo not shown) [Example 63, 10-(2-methoxyphenyl)-1,2,3,4,4a,5-hexahydropyrazino[1,2-a][1,5]benzodiazepin-6(7H)-one], the half-maximal effective concentration (EC50) is greater than 10 µM at 5HT2B receptors (setting [1]) and 0.09 µM at 5HT2C receptors (setting [2]). In addition, the Emax at 5HT2C receptors (setting [3]) is 110%.

Consider `COc1ccccc1-c1ccc2c(c1)N1CCNC[C@@H]1CCO2` [Example 192, (4aS)-10-(2-methoxyphenyl)-2,3,4,4a,5,6-hexahydro-1H-pyrazino[2,1-d][1,5]benzoxazepine], for which the EC50 at 5HT2B receptors (setting [1]) came to 1 µM; at 5HT2C receptors (setting [2]), 0.03 µM. In addition, the Emax at 5HT2B receptors (setting [5]) was 10%; at 5HT2C receptors (setting [3]), greater than 120%.

Turning to `C[C@H](Oc1ccc2c(c1)N1CCNCC1CC(=O)N2)c1ccccc1F` (stereo partly drawn) [Example 162, 10-[(1S)-1-(2-fluorophenyl)ethoxy]-1,2,3,4,4a,5-hexahydropyrazino[1,2-a][1,5]benzodiazepin-6(7H)-one], the results for the EC50 at 5HT2B receptors (setting [1]) and on 5HT2C receptors (setting [2]) were 1 µM and 0.07 µM, respectively. Moreover, the Emax on 5HT2B receptors (setting [5]) is 20%; on 5HT2C receptors (setting [3]), greater than 120%.

For `Cc1cc(Cl)cc2c1OCC[C@H]1CNCCN21` [Example 227, (4aS)-10-chloro-8-methyl-2,3,4,4a,5,6-hexahydro-1H-pyrazino[2,1-d][1,5]benzoxazepine], the figures for the EC50 at 5HT2B receptors and on 5HT2C receptors were 0.05 µM and 0.008 µM, respectively. The Emax at 5HT2B receptors (setting [6]) is 20%; on 5HT2C receptors (setting [4]), 85%.

For the compound `Clc1ccc2c(c1)N1CCN(Cc3ccccc3)C[C@@H]1CCO2` [Example 186, (4aS)-3-benzyl-10-chloro-2,3,4,4a,5,6-hexahydro-1H-pyrazino[2,1-d][1,5]-benzoxazepine], the EC50 on 5HT2B receptors (setting [1]) was greater than 10 µM; on 5HT2C receptors (setting [2]), 0.8 µM. In addition, on 5HT2C receptors (setting [3]), the Emax is greater than 120%.

With `FC(F)(F)c1cccc2c1OCC[C@H]1CNCCN21` [Example 215, (4aS)-8-(trifluoromethyl)-2,3,4,4a,5,6-hexahydro-1H-pyrazino[2,1-d][1,5]benzoxazepine], the EC50 at 5HT2B receptors (setting [1]) is greater than 10 µM; at 5HT2C receptors (setting [2]) it was 0.003 µM. For the same compound, the Emax on 5HT2C receptors (setting [3]) was found to be 110%.

Regarding `O=C1CC2CNCCN2c2cc(OCCc3ccccc3)ccc2N1` (stereo not shown) [Example 158, 10-(2-phenylethoxy)-1,2,3,4,4a,5-hexahydropyrazino[1,2-a][1,5]benzodiazepin-6(7H)-one], the concentration giving a half-maximal response (EC50) at 5HT2B receptors (setting [1]) was greater than 10 µM; on 5HT2C receptors (setting [2]) it was 0.025 µM. The Emax on 5HT2C receptors (setting [3]) was greater than 120%.

Regarding `O=C1CC2CNCCN2c2cc(COc3ccccc3)ccc2N1` (stereo not shown) [Example 111, 10-(phenoxymethyl)-1,2,3,4,4a,5-hexahydropyrazino[1,2-a][1,5]benzodiazepin-6(7H)-one], the values for the half-maximal effective concentration (EC50) at 5HT2B receptors (setting [1]) and at 5HT2C receptors (setting [2]) were 0.7 µM and 0.02 µM, respectively. Further, the values for the Emax on 5HT2B receptors (setting [5]) and on 5HT2C receptors (setting [3]) were 20% and greater than 120%, respectively.

Take `C1=C(c2ccc3c(c2)N2CCNC[C@@H]2CCO3)CCOC1` [Example 210, (4aS)-10-(3,6-dihydro-2H-pyran-4-yl)-2,3,4,4a,5,6-hexahydro-1H-pyrazino[2,1-d][1,5]benzoxazepine]: the concentration for a half-maximal effect (EC50) on 5HT2B receptors (setting [1]) amounted to 1 µM; on 5HT2C receptors (setting [2]), 0.01 µM. Besides, the maximal response (Emax) was 20% on 5HT2B receptors (setting [5]) and greater than 120% at 5HT2C receptors (setting [3]).

In the case of `O=C1CC2CNCCN2c2cc(-c3cccc4[nH]ccc34)ccc2N1` (stereo not shown) [Example 68, 10-(1H-indol-4-yl)-1,2,3,4,4a,5-hexahydropyrazino[1,2-a][1,5]benzodiazepin-6(7H)-one], the EC50 at 5HT2B receptors (setting [1]) is greater than 10 µM; at 5HT2C receptors (setting [2]), 0.09 µM. Besides, the Emax on 5HT2C receptors (setting [3]) is greater than 120%.

Regarding `O=C1CC2CNCCN2c2cc(CCc3ccccc3F)ccc2N1` (stereo not shown) [Example 144, 10-[2-(2-fluorophenyl)ethyl]-1,2,3,4,4a,5-hexahydropyrazino[1,2-a][1,5]benzodiazepin-6(7H)-one], the values for the half-maximal effective concentration (EC50) on 5HT2B receptors (setting [1]) and at 5HT2C receptors (setting [2]) were greater than 10 µM and 0.002 µM, respectively. Moreover, the results for the Emax on 5HT2B receptors (setting [5]) and at 5HT2C receptors (setting [3]) were 50% and greater than 120%, respectively.

Take `O=C1CC2CNCCN2c2cc(CCc3cccc(F)c3)ccc2N1` (stereo not shown) [Example 145, 10-[2-(3-fluorophenyl)ethyl]-1,2,3,4,4a,5-hexahydropyrazino[1,2-a][1,5]benzodiazepin-6(7H)-one]: the concentration for a half-maximal effect (EC50) at 5HT2B receptors (setting [1]) was greater than 10 µM; at 5HT2C receptors (setting [2]) it was 0.006 µM. On 5HT2C receptors (setting [3]), the maximum response (Emax) is greater than 120%.

As for `O=C1C[C@@H]2CNCCN2c2c(F)cccc2N1` [Example 87, (4aR)-11-fluoro-1,2,3,4,4a,5-hexahydropyrazino[1,2-a][1,5]benzodiazepin-6(7H)-one], the 50% effective concentration (EC50) on 5HT2B receptors was greater than 10 µM; at 5HT2C receptors it was 0.9 µM. The Emax on 5HT2C receptors (setting [4]) is greater than 120%.

As to `Cc1cccc2c1N1CCNCC1CC(=O)N2` (stereo not shown) [Example 53, 11-methyl-1,2,3,4,4a,5-hexahydropyrazino[1,2-a][1,5]benzodiazepin-6(7H)-one], the half-maximal effective concentration (EC50) on 5HT2B receptors is 3 µM; at 5HT2C receptors, 0.006 µM. Also, the maximal response (Emax) is 60% on 5HT2B receptors (setting [6]) and greater than 120% at 5HT2C receptors (setting [4]).

As for `c1csc(-c2cccc3c2OCC[C@H]2CNCCN32)c1` [Example 249, (4aS)-8-(2-thienyl)-2,3,4,4a,5,6-hexahydro-1H-pyrazino[2,1-d][1,5]benzoxazepine], the EC50 was greater than 10 µM on 5HT2B receptors (setting [1]) and 0.0001 µM on 5HT2C receptors (setting [2]). For the same compound, the Emax at 5HT2C receptors (setting [3]) was 75%.

In the case of `c1cncc(-c2ccc3c(c2)N2CCNC[C@@H]2CCO3)c1` [Example 206, (4aS)-10-(pyridin-3-yl)-2,3,4,4a,5,6-hexahydro-1H-pyrazino[2,1-d][1,5]benzoxazepine], the concentration giving a half-maximal response (EC50) is greater than 10 µM at 5HT2B receptors and 0.07 µM at 5HT2C receptors. At 5HT2C receptors (setting [4]), the maximal effect (Emax) was greater than 120%.

As to `Clc1cccc2c1OCC[C@H]1CNCCN21` [Example 138, (4aS)-8-chloro-2,3,4,4a,5,6-hexahydro-1H-pyrazino[2,1-d][1,5]benzoxazepine], the figures for the concentration giving a half-maximal response (EC50) on 5HT2B receptors and at 5HT2C receptors were greater than 10 µM and 0.0007 µM, respectively. The Emax on 5HT2C receptors (setting [4]) was greater than 120%.

As for `Cc1ccc2c(c1)OCC[C@H]1CNCCN21` [Example 133, (4aS)-9-methyl-2,3,4,4a,5,6-hexahydro-1H-pyrazino[2,1-d][1,5]benzoxazepine], the EC50 is greater than 10 µM on 5HT2B receptors and 0.01 µM on 5HT2C receptors. Besides, the Emax on 5HT2C receptors (setting [4]) turned out to be 100%.
